The text below walks through data of article PMC10578352, “Identification of a Protein Arginine Methyltransferase 7 (PRMT7)/Protein Arginine Methyltransferase 9 (PRMT9) Inhibitor” (Journal of Medicinal Chemistry, 2023).

For one assay, the target named is T1, GST-HsPRMT7 (Homo sapiens, UniProt Q9NVM4).
T1 construct: made in house; host or cells: E. coli
T1 sequence (Q9NVM4 1-692): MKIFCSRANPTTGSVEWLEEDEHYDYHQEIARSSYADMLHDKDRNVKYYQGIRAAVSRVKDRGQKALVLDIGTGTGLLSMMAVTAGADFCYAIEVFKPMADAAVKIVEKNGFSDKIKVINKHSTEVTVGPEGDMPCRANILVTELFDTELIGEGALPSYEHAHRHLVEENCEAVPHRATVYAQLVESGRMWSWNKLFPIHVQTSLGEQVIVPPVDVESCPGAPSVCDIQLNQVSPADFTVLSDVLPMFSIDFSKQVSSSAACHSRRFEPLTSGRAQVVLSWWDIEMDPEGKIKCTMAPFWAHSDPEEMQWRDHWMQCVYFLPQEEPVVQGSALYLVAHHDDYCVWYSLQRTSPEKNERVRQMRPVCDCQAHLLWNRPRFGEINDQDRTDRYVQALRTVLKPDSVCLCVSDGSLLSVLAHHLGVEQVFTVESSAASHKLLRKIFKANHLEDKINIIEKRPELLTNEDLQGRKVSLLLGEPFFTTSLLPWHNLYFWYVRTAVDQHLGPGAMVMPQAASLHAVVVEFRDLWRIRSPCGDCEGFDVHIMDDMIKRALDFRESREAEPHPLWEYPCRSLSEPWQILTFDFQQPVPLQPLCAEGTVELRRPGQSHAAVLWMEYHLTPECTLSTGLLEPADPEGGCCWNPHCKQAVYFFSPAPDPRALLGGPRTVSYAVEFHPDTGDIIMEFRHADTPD
Kind of assay: Radioisotope-based assay (SDS-PAGE, fluorography, densitometry), HsPRMT7. Conditions: substrate HsH2B, 15 °C, read-out: % HsPRMT7 residual activity. Format: biochemical. On the procedure:
(§1) Based on these outcomes, we resolved to explore the effect on the capability to inhibit PRMT9 enzymatic activity of further reduction of the distance between the pharmacophoric moieties. […] After the experiment was repeated with 100, 250, and 500 μM concentrations of each inhibitor, half inhibition was observed only at a concentration of roughly 250 μM (Figure 4d).
(§2) […]. The experiments were performed as reported in the Experimental procedures section. GST-HsPRMT9 (a) and GST-HsPRMT7 (b) were incubated with human GST-SF3B2 (401–550) peptide or recombinant HsH2B, respectively (1 μg of enzyme, 5 μg of substrate), 0.14 μM [^3H]SAM, and the indicated concentrations of tested compounds at the corresponding optimal reaction temperature (37 °C for HsPRMT9, 15 °C for HsPRMT7). C. elegans GST-tagged enzymes PRMT9 (c) and PRMT7 (d) were incubated with GST-CeSFTB-2 (99–248) fragment or recombinant HsH2B, respectively (1 μg of enzyme, 5 μg of substrate), 0.14 μM [^3H]SAM, and the indicated concentrations of tested compounds at the corresponding optimal reaction temperature (25 °C for CePRMT9, 15 °C for CePRMT7). After SDS-PAGE, the gels were treated as previously described[48] and densitometry analysis was done using ImageJ software, and data was plotted as normalized activity to the no inhibitor controls.
(§3) Human PRMT9, C. elegans PRMT9, human PRMT7, and C. elegans PRMT7 plasmids were sequenced, expressed in E. coli as GST-fusion proteins, and purified as previously described.[48] Substrates were also sequenced and purified as described [human GST-SF3B2 (401–550);[13]C. elegans SFTB-2;[48] human histone H2B (New England Biolabs, M2505S)]. Xenopus laevis histone H2B was expressed in E. coli and purified similarly to what was previously reported by Luger et al.[72]
(§4) Reactions consisting of approximately 1 μg of enzyme (human or C. elegans GST-tagged enzymes PRMT9 and PRMT7), reacted with approximately 5 μg of substrate [for human PRMT9, human GST-SF3B2 401–550 fragment; C. elegans PRMT9 with C. elegans GST-SFTB-2 (99–248) fragment, or recombinant human histone H2B from New England Biolabs (M2505S)], were incubated for the indicated time in reaction buffer {50 mM potassium HEPES buffer, 10 mM NaCl, 1 mM dithiothreitol (DTT), pH 8.0 with 0.7 μM S-adenosyl-L-[methyl-^3H]methionine (^3H-AdoMet, PerkinElmer Life Sciences, 82.7 Ci/mmol, 0.55 mCi/mL in 10 mM H2SO4/EtOH [9:1 (v/v)])} in a final reaction volume of 60 μL. Each reaction was incubated at the corresponding optimal reaction temperature (37 °C for human PRMT9, 25 °C for C. elegans PRMT9, and 15 °C for C. elegans and human PRMT7 enzymes. MTA was dissolved in water, and a wavelength scan was taken to determine the final concentration using the extinction coefficient. The final concentrations used are indicated in the figure legends. […]. EML734, EML736, and EML709 were also dissolved in DMSO, and further dilutions were made in DMSO for the working stocks. For controls, no inhibitor reactions were created by the addition of the respective solvent (water for MTA and DMSO for EPZ015666 and EML inhibitors).
After the reaction incubations with the various concentrations of inhibitors, the reactions were quenched by adding 0.2 volume of 5× SDS sample loading buffer, and subsequently, the reactions were run on a 12.6% polyacrylamide Tris gel. To collect the radioactive signal, the gels were then treated in the same way as previously described.[48] […]

The next assay addresses T2, CePRMT7 (Caenorhabditis elegans, UniProt Q9XW42).
T2 construct: made in house; host or cells: E. coli
Kind of assay: Radioisotope-based assay (SDS-PAGE, fluorography, densitometry), CePRMT7. The following applies: 100 uM; substrate HsH2B, 15 °C; read-out: % CePRMT7 residual activity. Format: biochemical. Here is the method:
as §1, §2, §3, §4
(§5) After the reaction incubations with the various concentrations of inhibitors, the reactions were quenched by adding 0.2 volume of 5× SDS sample loading buffer, and subsequently, the reactions were run on a 12.6% polyacrylamide Tris gel. To collect the radioactive signal, the gels were then treated in the same way as previously described.[48]
(§6) After various exposures were collected to ensure linear detection, densitometry analysis was done using ImageJ software, and data were plotted as normalized activity to the no inhibitor controls.

For the next assay, the system named is CePRMT9. The assay can be described thus: Radioisotope-based assay (SDS-PAGE, fluorography, densitometry), CePRMT9. Conditions: substrate GST-CeSFTB-2 (99–248), 25 °C. It counts as biochemical, Caenorhabditis elegans. Here is the method: as §1, §2, §3, §4, §5, §6
For the next assay, the target named is T3, GST-HsPRMT9 (Homo sapiens, UniProt Q6P2P2).
T3 construct: made in house; host or cells: E. coli
T3 sequence (Q6P2P2 1-845): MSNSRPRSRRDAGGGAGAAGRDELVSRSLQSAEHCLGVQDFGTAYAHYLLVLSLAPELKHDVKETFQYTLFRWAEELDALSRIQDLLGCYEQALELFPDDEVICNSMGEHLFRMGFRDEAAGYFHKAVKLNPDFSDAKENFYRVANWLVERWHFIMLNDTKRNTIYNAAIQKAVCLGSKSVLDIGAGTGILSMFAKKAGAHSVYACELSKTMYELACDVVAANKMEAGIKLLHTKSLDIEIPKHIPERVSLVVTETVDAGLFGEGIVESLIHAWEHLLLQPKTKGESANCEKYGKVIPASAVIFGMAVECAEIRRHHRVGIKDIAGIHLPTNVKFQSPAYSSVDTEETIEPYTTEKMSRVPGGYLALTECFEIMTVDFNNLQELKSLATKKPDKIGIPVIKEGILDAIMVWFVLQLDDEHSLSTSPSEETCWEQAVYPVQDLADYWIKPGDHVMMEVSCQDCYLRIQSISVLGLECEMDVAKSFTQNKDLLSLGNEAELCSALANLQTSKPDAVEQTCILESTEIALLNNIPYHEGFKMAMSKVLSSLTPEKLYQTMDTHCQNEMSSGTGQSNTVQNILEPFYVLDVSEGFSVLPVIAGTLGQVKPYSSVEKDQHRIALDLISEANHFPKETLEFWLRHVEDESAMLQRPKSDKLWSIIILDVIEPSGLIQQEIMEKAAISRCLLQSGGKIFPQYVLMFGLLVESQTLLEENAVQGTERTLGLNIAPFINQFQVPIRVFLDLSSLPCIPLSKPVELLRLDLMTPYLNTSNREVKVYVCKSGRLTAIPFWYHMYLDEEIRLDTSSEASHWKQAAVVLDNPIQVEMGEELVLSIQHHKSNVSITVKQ
Kind of assay: Radioisotope-based assay (SDS-PAGE, fluorography, densitometry), HsPRMT9. It counts as biochemical. Here is the method:
as §1, §2, §3, §4, §5, §6

A further assay has as its target T4, ASH1L/KMT2H (Homo sapiens, UniProt Q9NR48).
T4 construct: the human recombinant ASH1L (residues 2046–2330, with an N-terminal His-tag); His (N); purchased Reaction Biology Corporation
Kind of assay: HotSpot KMT activity assay, ASH1L. It counts as biochemical. From the text: ; MW = 35.4 kDa; Genbank Accession # NM_018489), or the human recombinant EZH2-containing five-member polycomb repressive complex 2 (including EZH2 residues 2–746, AEBP2 2–517, EED 2–441, RbAp48 2–425, SUZ12 2–739; all full-length; with N-terminal Flag-tag on EED and N-terminal His-tag on all others; MW = 333.8 kDa; Genbank Accession # NM_001203247, NM_001114176, NM_003797, NM_005610, NM_015355), or the human recombinant G9a (residues 913–1193, C-terminus; with an N-terminal His-tag; MW = 34.6 kDa; Genbank Accession # NM_006709.3), or the human recombinant MLL1 complex (including MLL1 residues 3745–3969, C-terminus, WDR5 22–334, C-terminus, RbBP5 1–538, C-terminus, ASH2L 2–534, C-terminus, DPY-30 1–99, C-terminus; N-terminal His-tag on all subunits; MW = 212.0 kDa; Genbank Accession # NM_005933, NM_017588, NM_005057, NM_001105214, NM_0325742), or the human recombinant SET7/9 (residues 2–366, C-terminus; with a N-terminal GST-tag and a C-terminal His-tag; MW = 68.5 kDa; Genbank Accession # NM_030648), or the human recombinant SMYD3 (residues 2–428, C-terminus; C-terminal His-tag; MW = 50.1 kDa; Genbank Accession # NM_001167740), or the human recombinant SUV39H2 (residues 46–410, C-terminus; N-terminal fusion protein with a C-terminal His-tag; MW = 98.8 kDa; GenBank Accession No. NM_001193424), or the human recombinant DOT1L (residues 1–416; N-terminal GST-tag; MW = 80.0 kDa; Genbank Accession # NM_032482) was added to a solution of the proper substrate (oligo nucleosomes for ASH1L, MLL1 complex, and DOT1L, final concentration 0.05 mg/mL; core histone for EZH2 complex and SET7/9, final concentration 0.05 mg/mL; histone H3 for SUV39H2, final concentration 5 μM; histone H3 1–21 for G9a, final concentration 2.5 μM) in freshly prepared reaction buffer (50 mM Tris-HCl (pH 8.5), 5 mM MgCl2, 50 mM NaCl, 1 mM DTT, 1 mM PMSF, 1% DMSO) and gently mixed. […] After incubation for 60 min at 30 °C, the reaction mixture was delivered to filter paper for detection (as assessed by scintillation). […] Values obtained for each compound are mean ± SD determined for two separate experiments.

Setting [1] is: substrate GST-SF3B2 (401–550), 37 °C, read-out: % HsPRMT9 residual activity.

As usually defined, the IC50 is the concentration that gives 50% inhibition.

T2 sequence (Q9XW42 whole entry): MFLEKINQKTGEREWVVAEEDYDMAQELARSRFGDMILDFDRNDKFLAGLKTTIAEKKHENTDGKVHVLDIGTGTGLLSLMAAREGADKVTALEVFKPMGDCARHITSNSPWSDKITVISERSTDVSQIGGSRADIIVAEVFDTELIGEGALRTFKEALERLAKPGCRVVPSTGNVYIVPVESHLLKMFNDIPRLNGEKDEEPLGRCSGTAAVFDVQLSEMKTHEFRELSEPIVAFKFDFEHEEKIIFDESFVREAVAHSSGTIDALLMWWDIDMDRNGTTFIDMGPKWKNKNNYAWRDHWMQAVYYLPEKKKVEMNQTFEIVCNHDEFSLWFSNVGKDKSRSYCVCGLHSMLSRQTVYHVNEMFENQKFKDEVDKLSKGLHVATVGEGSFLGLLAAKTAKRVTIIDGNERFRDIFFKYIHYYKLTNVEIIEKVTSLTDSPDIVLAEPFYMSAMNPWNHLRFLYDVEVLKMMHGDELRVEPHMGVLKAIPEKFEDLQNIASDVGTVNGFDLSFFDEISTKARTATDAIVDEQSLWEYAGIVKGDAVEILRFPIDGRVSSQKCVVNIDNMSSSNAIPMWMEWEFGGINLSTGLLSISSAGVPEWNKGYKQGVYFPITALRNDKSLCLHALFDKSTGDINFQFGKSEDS

`O=C(NC[C@H](O)CN1CCc2ccccc2C1)c1cc(NC2COC2)ncn1` [EPZ015666, reference compound]: the remaining activity at 100 µM came out at 120% at GST-HsPRMT7, 131% on CePRMT7 and 99.8% at GST-HsPRMT9 (setting [1]). Further, the “% CePRMT9 residual activity” value amounted to 139.23% in the assay with CePRMT9 (100 uM), 132.20% in the assay on CePRMT9 (250 uM) and 105.26% in the assay on CePRMT9 (500 uM). Moreover, the remaining activity at 250 µM at GST-HsPRMT9 (250 uM, substrate GST-SF3B2 (401–550), 37 °C, read-out: % HsPRMT9 residual activity) turned out to be 105%. On GST-HsPRMT9 (500 uM, substrate GST-SF3B2 (401–550), 37 °C, read-out: % HsPRMT9 residual activity), the remaining activity at 500 µM is 98%. Moreover, on GST-HsPRMT9 (up to 500 μM), the “inhibition of HsPRMT9 (in words)” value was “inactive”.

With `CSC[C@H]1O[C@@H](n2cnc3c(N)ncnc32)[C@H](O)[C@@H]1O` [MTA, 5′-Deoxy-5′-(methylthio)adenosine, reference compound], the remaining activity at 100 µM at GST-HsPRMT7 was 46.8%; on CePRMT7 it was 130%; on GST-HsPRMT9 (setting [1]), 26%. Further, the “% CePRMT9 residual activity” value in the assay on CePRMT9 (100 uM) was determined as 23.57%. For the same compound, on GST-HsPRMT9 (100 μM), the “inhibition of HsPRMT9 (in words)” value is reported as “good inhibition only at 100 μM”.

With `CN1C(=O)[C@@]23C[C@]4([C@]56C[C@@]78SS[C@@](CO)(C(=O)N7[C@H]5Nc5ccccc56)N(C)C8=O)c5ccccc5N[C@@H]4N2C(=O)[C@]1(CO)SS3` [chaetocin, reference compound], on ASH1L/KMT2H, the IC50 was found to be 25 nM.
